Laboratory results from patent EP4818172A1, “ASCORBIC ACID DERIVATIVES AND COSMETIC CONTAINING SAME” (Seiwa Kasei Co., Ltd., priority 2023, dated 2025).

Key:
[1] = tested on: Normal human dermal fibroblasts (NHDF); test: Hyaluronic acid production promoting effect (ELISA of supernatant); assay type: cell-based; conditions: sample at 10 mM or less in serum-free D-MEM, cultured 48 hours, % of control group (100%), N=3
Experimental: Normal human dermal fibroblasts (NHDF) were prepared in D-MEM containing 5% (v/v) fetal bovine serum to a cell density of 2.5 × 10^4 cells/well, and then pre-incubated on a 96-well plate for 24 hours. After removing the medium, samples prepared in serum-free D-MEM were added to each well and cultured for 48 hours. After the culture was completed, the amount of hyaluronic acid in the supernatant was quantified by ELISA. Measurements were performed in triplicate (N=3).
The amount of hyaluronic acid produced when the sample was measured at a concentration of 10 mM or less was compared with that of the control group, and the results (% values when the control group is set to 100%) are shown in Tables 18 to 20 based on the following criteria. • <100%: ± • 100-120%: + • 120%<: ++ [Table 18]

[2] = Stability test -2: odor and coloration of cream stored at 50°C; assay type: physicochemical; conditions: Test Example 2, cream stored at 50°C, total score of 10 panelists
Experimental: For each of the samples of Synthesis Examples 1 to 6, 1% aqueous solutions were adjusted to pH 3, 5, 7, 8, and 9 with a dilute potassium hydroxide aqueous solution, and then placed in 50 mL screw tubes and • 2: Color changes compared to immediately after preparation. • 1: Strongly colored compared to immediately after preparation. Based on the results of the above evaluation, the following classification was made: • ○: Total score of 10 panelists is 25 or more • △: Total score of 10 panelists is 16-24 • ×: The total score of 10 panelists is 15 or less [Table 10]
(§1) For each of the samples of Synthesis Examples 9 to 32, (a) and (b) shown in Table 12 were each heated and mixed. After cooling, (c) shown in Table 12 was added to prepare a cream with a pH of 7 or 9. The sample was stored at 50°C for 4 weeks, and the residual rate was determined in the same manner as in Test Example 1 and evaluated according to the criteria described below. The odor and coloration were also evaluated according to the same method and criteria as in Test Example 1. The results regarding the residual rate are shown in Tables 13 and 14, and the results regarding the odor and coloration are shown in Tables 15 and 16.

[3] = Stability test -2: residual rate in cream of pH 7 or 9 stored at 50°C; assay type: physicochemical; conditions: cream with 4.0 W/W% derivative
Experimental: as §1
• ⊚: 95% or more • ○: 85% or more, less than 95% • ×: Less than 85% [Table 12]

SMILES	Hyaluronic acid production-promoting effect [1]	Coloration After 2 weeks [2]	Odor After 2 weeks [2]	Coloration After 4 weeks [2]	Odor After 4 weeks [2]	Residual Rate After 2 weeks ([3]; pH7, stored at 50°C)	Residual Rate After 4 weeks ([3]; pH7, stored at 50°C)	Residual Rate After 2 weeks ([3]; pH9, stored at 50°C)	Residual Rate After 4 weeks ([3]; pH9, stored at 50°C)
CCCCCCCCCCCCCCCC(=O)OC[C@H](O)[C@H]1OC(=O)C(OP(=O)(O)O)=C1O [Ascorbyl phosphate 3Na palmitate, reference compound]	± (<100%)	–	–	–	–	–	–	–	–
CCCCCCCCC(CCCCCC)C(=O)OC[C@H](OC(=O)C(CCCCCC)CCCCCCCC)[C@H]1OC(=O)C(OC(=O)C(CCCCCC)CCCCCCCC)=C1OC(=O)C(CCCCCC)CCCCCCCC (some centres unmarked) [Ascorbyl tetrahexyldecanoate, reference compound]	–	○ (Total score of 10 panelists is 25 or more)	○ (Total score of 10 panelists is 25 or more)	Δ	Δ	○ (85% or more, less than 95%)	× (Less than 85%)	○ (85% or more, less than 95%)	× (Less than 85%)
CCCCCCCCCCCCCCCC(=O)OCC(OC(=O)CCC)C1OC(=O)C2=C1OCCCO2 (centres unmarked) [Synthesis Example 30, 5-O-butanoyl-6-O-palmitoyl-2,3-O-(1,3-propanediyl) ascorbic acid]	–	○ (Total score of 10 panelists is 25 or more)	○ (Total score of 10 panelists is 25 or more)	○ (Total score of 10 panelists is 25 or more)	Δ	⊚ (95% or more)	⊚ (95% or more)	⊚ (95% or more)	⊚ (95% or more)
CC(C)CCCCCCCCCCCCCCC(=O)OCC(OC(=O)CCCCCCCCCCCCCCC(C)C)C1OC(=O)C2=C1OCCO2 (centres unmarked) [Synthesis Example 32, 5,6-O-diisostearoyl-2,3-O-(1,2-ethanediyl) ascorbic acid]	+ (100-120%)	○ (Total score of 10 panelists is 25 or more)	○ (Total score of 10 panelists is 25 or more)	○ (Total score of 10 panelists is 25 or more)	Δ	⊚ (95% or more)	⊚ (95% or more)	⊚ (95% or more)	⊚ (95% or more)
CC1(C)COC2=C(O1)C(C(O)CO)OC2=O (centres unmarked) [synthesis example 7, 2,3-O-(2,2-dimethyl-1,2-ethanediyl) ascorbic acid]	+ (100-120%)	–	–	–	–	–	–	–	–
CCCCCCCC(=O)OCC(O)C1OC(=O)C2=C1OCCCCO2 (centres unmarked) [synthesis example 11, 6-O-octanoyl-2,3-O-(1,4-butanediyl) ascorbic acid]	++ (120%<)	○ (Total score of 10 panelists is 25 or more)	○ (Total score of 10 panelists is 25 or more)	○ (Total score of 10 panelists is 25 or more)	Δ	⊚ (95% or more)	⊚ (95% or more)	⊚ (95% or more)	○ (85% or more, less than 95%)
CC(C)CCCCCCCCCCCCCCC(=O)OC[C@H](OC(=O)CCCCCCCCCCCCCCC(C)C)[C@H]1OC(=O)C2=C1OCCCCO2 [synthesis example 18, 5,6-O-diisostearoyl-2,3-O-(1,4-butanediyl) ascorbic acid]	++ (120%<)	○ (Total score of 10 panelists is 25 or more)	○ (Total score of 10 panelists is 25 or more)	○ (Total score of 10 panelists is 25 or more)	Δ	⊚ (95% or more)	⊚ (95% or more)	⊚ (95% or more)	⊚ (95% or more)
CCCC(=O)OCC(O)C1OC(=O)C2=C1OCCCO2 (centres unmarked) [synthesis example 20, 6-O-butanoyl-2,3-O-(1,3-propanediyl) ascorbic acid]	++ (120%<)	○ (Total score of 10 panelists is 25 or more)	○ (Total score of 10 panelists is 25 or more)	○ (Total score of 10 panelists is 25 or more)	Δ	⊚ (95% or more)	⊚ (95% or more)	⊚ (95% or more)	⊚ (95% or more)
CCCCCCCC(=O)OCC(O)C1OC(=O)C2=C1OCCCO2 (centres unmarked) [synthesis example 22, 6-O-octanoyl-2,3-O-(1,3-propanediyl) ascorbic acid]	++ (120%<)	○ (Total score of 10 panelists is 25 or more)	○ (Total score of 10 panelists is 25 or more)	○ (Total score of 10 panelists is 25 or more)	Δ	⊚ (95% or more)	⊚ (95% or more)	⊚ (95% or more)	⊚ (95% or more)
CCCCCCCCCCCC(=O)OCC(O)C1OC(=O)C2=C1OCCCO2 (centres unmarked) [synthesis example 24, 6-O-lauroyl-2,3-O-(1,3-propanediyl) ascorbic acid]	++ (120%<)	○ (Total score of 10 panelists is 25 or more)	○ (Total score of 10 panelists is 25 or more)	○ (Total score of 10 panelists is 25 or more)	Δ	⊚ (95% or more)	⊚ (95% or more)	⊚ (95% or more)	⊚ (95% or more)
CCCCCCCCCCCC(=O)OCC(OC(=O)CCCCCCCCCCC)C1OC(=O)C2=C1OCCCO2 (centres unmarked) [synthesis example 25, 5,6-O-dilauroyl-2,3-O-(1,3-propanediyl) ascorbic acid]	++ (120%<)	○ (Total score of 10 panelists is 25 or more)	○ (Total score of 10 panelists is 25 or more)	Δ	Δ	⊚ (95% or more)	⊚ (95% or more)	⊚ (95% or more)	⊚ (95% or more)
CC1(C)OCC(C2OC(=O)C3=C2OCCCCO3)O1 (centres unmarked) [synthesis example 35, 5,6-O-isopropylidene-2,3-O-(1,4-butanediyl) ascorbic acid]	++ (120%<)	–	–	–	–	–	–	–	–
CC1(C)OCC(C2OC(=O)C3=C2OCCCO3)O1 (centres unmarked) [synthesis example 36, 5,6-O-isopropylidene-2,3-O-(1,3-propanediyl) ascorbic acid]	++ (120%<)	–	–	–	–	–	–	–	–
O=C1OC(C2COC(c3ccccc3)O2)C2=C1OCCCCO2 (centres unmarked) [synthesis example 37, 5,6-O-(phenylmethylene)-2,3-O-(1,4-butanediyl) ascorbic acid]	+ (100-120%)	–	–	–	–	–	–	–	–
O=C1OC(C2COC(c3ccccc3)O2)C2=C1OCCCO2 (centres unmarked) [synthesis example 38, 5,6-O-(phenylmethylene)-2,3-O-(1,3-propanediyl) ascorbic acid]	++ (120%<)	–	–	–	–	–	–	–	–
CC1(C)COC2=C(O1)C(=O)OC2C(O)CO (centres unmarked) [synthetic example 8, 2,3-O-(1,1-dimethyl-1,2-ethanediyl) ascorbic acid]	+ (100-120%)	–	–	–	–	–	–	–	–
CCCCCCCC(=O)OCC(OC(=O)CCC)C1OC(=O)C2=C1OCCCCO2 (centres unmarked) [synthetic example 19, 5-O-butanoyl-6-O-octanoyl-2,3-O-(1,4-butanediyl) ascorbic acid]	–	○ (Total score of 10 panelists is 25 or more)	○ (Total score of 10 panelists is 25 or more)	○ (Total score of 10 panelists is 25 or more)	Δ	⊚ (95% or more)	⊚ (95% or more)	⊚ (95% or more)	⊚ (95% or more)
O=C1OC(C(O)COCc2ccccc2)C2=C1OCCCCO2 (centres unmarked) [synthetic example 39, 6-O-benzyl-2,3-O-(1,4-butanediyl) ascorbic acid]	+ (100-120%)	–	–	–	–	–	–	–	–
